Assay results from patent publication US8652525B2, “NSAID delivery from polyarylates” (TYRX, Inc., priority 2008, dated 2014).
Each block holds one compound with its values, some of them ahead of it.

Key:
[1] = In vitro release profile of ketoprofen-loaded microparticles using dialysis tubes; format: physicochemical; conditions: p(10% DT, DTE succinate) microparticles 125-180 μm, 40% loading
Method: The p(10% DT, DTE succinate) was dried at 40° C. for 3 days and analyzed. 4.8 g of polymer was placed in a plastic beaker and topped with an excess of ethanol. The polymer was allowed to stand in ethanol at 50° C. for 2-3 hours. […] After overnight drying, the polymer/drug mixture was ground using a coffee grinder (overhead design). First, the polymer/drug mixture was cooled in liquid nitrogen. Then the polymer-drug mass was mixed with ground dry ice, added to the container of the grinder and ground at the highest speed for at least 5 min. The whole mixture of dry ice plus polymer/drug powder was transferred into a beaker, covered with Kimwipes™ and placed into a vacuum oven at 40° C. to dry overnight.
The in vitro release profile of the microparticles was determined using dialysis tubes.

[2] = Ketoprofen release studies from polyarylate films and microparticles in phosphate buffered saline, HPLC; conditions: for ketoprofen release rate: p(10% DT, DTE succinate) film; for ketoprofen released per day: p(10% DT, DTE succinate) solvent cast film
[3] = given orally for systemic distribution; cited from earlier work
post-operative pain = conditions: after cesarean delivery; comparator ropivacaine continuous wound infiltration with intravenous (iv) diclofenac; cited from earlier work
[4] = p(10% DT, DTE succinate) solvent cast film, 20% loading
Method: 1 ml of the buffer was withdrawn periodically and run through the HPLC system described in Example 1.
Naproxen was formulated at 20% loading in a matrix of p(10% DT, DTE succinate) by solvent casting from methylene chloride and assessed for long-term release.

[5] = p(10% DT, DTE adipate), PBS pH 7.4, 37° C.
[6] = p(10% DT, DTE succinate) melt processed, compression molded film

- ketoprofen release after 6 days [1]: 100%
- ketoprofen released within 24 hours [1]: About 50%
- ketoprofen release mechanism (shape of the release curve) ([2]; DTO polymers, PBS pH 7.4, 37° C.): diffusion controlled
- ketoprofen release kinetics ([2]; microparticles milled from compression molded p(10% DT, DTE succinate) film, all sizes): fairly linear release
- time until ketoprofen release is completed ([2]; microparticles milled from compression molded p(10% DT, DTE succinate) film, largest particles (>500 microns)): about 60 days
- time until ketoprofen release is completed ([2]; microparticles milled from compression molded p(10% DT, DTE succinate) film, smallest particles (212 to 425 microns)): about 40 days
- ketoprofen release kinetics ([2]; p(10% DT, DTE adipate), after initial burst, PBS pH 7.4, 37° C.): approximately zero order kinetics
- duration of ketoprofen release [2, 5]: 2 weeks
- initial burst of ketoprofen release [2, 5]: 20%
- ketoprofen release rate ([2]; HMW polymer (94,000)): about 3 % per day
- ketoprofen release rate ([2]; LMW polymer (67,800)): about 5 % per day
- ketoprofen release kinetics [2, 6]: zero order kinetics
- rate of ketoprofen release [2, 6]: 1.3 % per day
- ketoprofen released per day ([2]; 10% loading, PBS pH 7.4, 37° C.): about 2 % per day
- ketoprofen released per day ([2]; 20% loading, PBS pH 7.4, 37° C.): 5 % per day
- ketoprofen released per day ([2]; 30% loading, PBS pH 7.4, 37° C.): 6 % per day
- ketoprofen released per day ([2]; 40% loading, PBS pH 7.4, 37° C.): about 8 % per day
- ketoprofen release kinetics ([2]; p(10% DT, DTE succinate) solvent cast films, all four loadings 10%, 20%, 30%, 40%): zero order kinetics
SMILES: CC(C(=O)O)c1cccc(C(=O)c2ccccc2)c1 (centres unmarked) [ketoprofen]
- effective plasma concentration range [3]: 1,000-4,000 ng/mL

SMILES: O=C(O)Cc1ccccc1Nc1c(Cl)cccc1Cl [diclofenac]
- efficacy of continuous wound infiltration versus comparator (post-operative pain): more effective

- drug released per day [4]: 1 % per day
- release kinetics [4]: zero order kinetics
- time until release is complete [4]: about 3 months
SMILES: COc1ccc2cc([C@H](C)C(=O)O)ccc2c1 [Naproxen]
